PubChem BioAssay AID1963969 (Molecular Pharmacology Branch, DTP, NCI, 2024)
Where “and” joins values, the source holds several entries; their conditions need not be identical. Identical values can stand only once.

Tested on: 817829-284-R-J1-PDC multi-cell spheroid viability
Experiment: Anticancer human tumor 817829-284-R-J1-PDC patient-derived colon adenocarcinoma cell line growth inhibition [PI3K]
Details: for viability, T/C: stronger effect = lower value
Summary of the method: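 Agents were dosed from a top concentration near clinical Cmax (otherwise 10 microM) in half-log decrements, alone or combined with PI3K inhibitors. The spheroids contain tumor cells plus endothelial (HUVEC) and MSC stroma; viability is measured.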

[1] = curve of first compound, second compound 0.0316 µM
[2] = curve of first compound, second compound 0.1 µM
[3] = curve of first compound, second compound 0.316 µM
[4] = curve of first compound, second compound 1 µM
[5] = curve of first compound, second compound 3.16 µM
[6] = curve of first compound, second compound 10 µM
[7] = second compound 0.0316 µM, first compound 0.0316 µM
[8] = second compound 0.0316 µM, first compound 0.1 µM
[9] = second compound 0.0316 µM, first compound 0.316 µM
[10] = second compound 0.0316 µM, first compound 1 µM
[11] = second compound 0.0316 µM, first compound 3.16 µM
[12] = second compound 0.0316 µM, first compound 10 µM
[13] = second compound 0.1 µM, first compound 0.0316 µM
[14] = second compound 0.1 µM, first compound 0.1 µM
[15] = second compound 0.1 µM, first compound 0.316 µM
[16] = second compound 0.1 µM, first compound 1 µM
[17] = second compound 0.1 µM, first compound 3.16 µM
[18] = second compound 0.1 µM, first compound 10 µM
[19] = second compound 0.316 µM, first compound 0.0316 µM
[20] = second compound 0.316 µM, first compound 0.1 µM
[21] = second compound 0.316 µM, first compound 0.316 µM
[22] = second compound 0.316 µM, first compound 1 µM
[23] = second compound 0.316 µM, first compound 3.16 µM
[24] = second compound 0.316 µM, first compound 10 µM
[25] = second compound 1 µM, first compound 0.0316 µM
[26] = second compound 1 µM, first compound 0.1 µM
[27] = second compound 1 µM, first compound 0.316 µM
[28] = second compound 1 µM, first compound 1 µM
[29] = second compound 1 µM, first compound 3.16 µM
[30] = second compound 1 µM, first compound 10 µM
[31] = second compound 3.16 µM, first compound 0.0316 µM
[32] = second compound 3.16 µM, first compound 0.1 µM
[33] = second compound 3.16 µM, first compound 0.316 µM
[34] = second compound 3.16 µM, first compound 1 µM
[35] = second compound 3.16 µM, first compound 3.16 µM
[36] = second compound 3.16 µM, first compound 10 µM
[37] = second compound 10 µM, first compound 0.0316 µM
[38] = second compound 10 µM, first compound 0.1 µM
[39] = second compound 10 µM, first compound 0.316 µM
[40] = second compound 10 µM, first compound 1 µM
[41] = second compound 10 µM, first compound 3.16 µM
[42] = second compound 10 µM, first compound 10 µM
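Further: spheroids exposed to agents for seven days before readout.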
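Wherever viability, T/C is given: percent of vehicle DMSO control viability which is 100%.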

Question: Which IC50 [1] does the source give for `CC(Cn1ccc(-c2ccc(C#N)c(Cl)c2)n1)NC(=O)c1cc(C(C)O)[nH]n1` (stereo not given) + CC(Nc1ncnc2nc[nH]c12)c1cc2cccc(Cl)c2c(=O)n1-c1ccccc1 here?
Answer: > 10 µM

Question: And the IC50 [2]?
Answer: 8.49 µM

Question: And the IC50 [3]?
Answer: > 10 µM

Question: And the IC50 [4]?
Answer: > 10 µM

Question: What about the IC50 [5] of the same compound?
Answer: > 10 µM

Question: What about the IC50 [6] of the same compound?
Answer: > 10 µM

Question: And the viability, T/C [7]?
Answer: 71.5%

Question: And the viability, T/C [8]?
Answer: 78.8%

Question: And the viability, T/C [9]?
Answer: 98.5%

Question: What about the viability, T/C [10] of the same compound?
Answer: 64.6%

Question: And the viability, T/C [11]?
Answer: 75.5%

Question: What about the viability, T/C [12] of the same compound?
Answer: 75.1%

Question: What about the viability, T/C [13] of the same compound?
Answer: 106%

Question: And the viability, T/C [14]?
Answer: 82.7%

Question: What about the viability, T/C [15] of the same compound?
Answer: 95.7%

Question: What about the viability, T/C [16] of the same compound?
Answer: 83.2%

Question: What about the viability, T/C [17] of the same compound?
Answer: 87.7%

Question: What about the viability, T/C [18] of the same compound?
Answer: 43.4%

Question: And the viability, T/C [19]?
Answer: 109%

Question: And the viability, T/C [20]?
Answer: 82.7%

Question: What about the viability, T/C [21] of the same compound?
Answer: 105%

Question: What about the viability, T/C [22] of the same compound?
Answer: 66.6%

Question: What about the viability, T/C [23] of the same compound?
Answer: 99.8%

Question: And the viability, T/C [24]?
Answer: 66.3%

Question: What about the viability, T/C [25] of the same compound?
Answer: 83.9%

Question: What about the viability, T/C [26] of the same compound?
Answer: 78.8%

Question: And the viability, T/C [27]?
Answer: 100%

Question: What about the viability, T/C [28] of the same compound?
Answer: 74.5%

Question: What about the viability, T/C [29] of the same compound?
Answer: 91.3%

Question: And the viability, T/C [30]?
Answer: 102%

Question: And the viability, T/C [31]?
Answer: 90.9%

Question: What about the viability, T/C [32] of the same compound?
Answer: 53.7%

Question: What about the viability, T/C [33] of the same compound?
Answer: 79.1%

Question: What about the viability, T/C [34] of the same compound?
Answer: 90.4%

Question: And the viability, T/C [35]?
Answer: 47.5%

Question: And the viability, T/C [36]?
Answer: 71.4%

Question: What about the viability, T/C [37] of the same compound?
Answer: 67.6%

Question: What about the viability, T/C [38] of the same compound?
Answer: 48.2%

Question: What about the viability, T/C [39] of the same compound?
Answer: 71.3%

Question: And the viability, T/C [40]?
Answer: 51%

Question: And the viability, T/C [41]?
Answer: 67.5%

Question: And the viability, T/C [42]?
Answer: 40.1%

Question: How did the viability, T/C (compound 0.00949 µM) turn out when `Cn1cnc2c(F)c(Nc3ccc(Br)cc3Cl)c(C(=O)NOCCO)cc21` was run?
Answer: 87.3% and 90.1%

Question: What about the viability, T/C (compound 0.03 µM) of the same compound?
Answer: 70.7% and 64.5%

Question: And the viability, T/C (compound 0.0949 µM)?
Answer: 65% and 73.3%

Question: And the viability, T/C (compound 0.3 µM)?
Answer: 62.5% and 52.7%

Question: And the viability, T/C (compound 0.949 µM)?
Answer: 55.5% and 55.6%

Question: What about the viability, T/C (compound 3 µM) of the same compound?
Answer: 33.4% and 21.9%

Question: And the IC50 (curve of compound)?
Answer: 0.901 µM and 0.649 µM

Question: What does the source list for `CC(Nc1ccc2c(c1)OCCn1cc(N3C(=O)OCC3C(F)F)nc1-2)C(N)=O` (stereo not given)?
Answer: viability, T/C (compound 0.00316 µM): 82.8% [middle of 6 runs]; IC50 (compound alone, run of 04/24/2023): > 1 µM and 0.28 µM and 1 µM

Question: `Cn1ncnc1[C@H]1c2n[nH]c(=O)c3cc(F)cc(c23)N[C@@H]1c1ccc(F)cc1` + Cc1nc(NC(=O)N2CCCC2C(N)=O)sc1-c1ccnc(C(C)(C)C(F)(F)F)c1 was tested. Which IC50 [1] did it give?
Answer: 0.0251 µM

Question: What about the IC50 [2] of the same compound?
Answer: 0.0627 µM

Question: And the IC50 [3]?
Answer: 0.0072 µM

Question: What about the IC50 [4] of the same compound?
Answer: 0.0412 µM

Question: And the IC50 [5]?
Answer: 0.0163 µM

Question: And the IC50 [6]?
Answer: 0.0119 µM

Question: And the viability, T/C (second compound 0.0316 µM, first compound 0.000316 µM)?
Answer: 60.7%

Question: And the viability, T/C (second compound 0.0316 µM, first compound 0.001 µM)?
Answer: 77%

Question: What about the viability, T/C (second compound 0.0316 µM, first compound 0.00316 µM) of the same compound?
Answer: 72.5%

Question: What about the viability, T/C (second compound 0.0316 µM, first compound 0.01 µM) of the same compound?
Answer: 55.1%

Question: And the viability, T/C [7]?
Answer: 49.4%

Question: And the viability, T/C [8]?
Answer: 48%

Question: And the viability, T/C (second compound 0.1 µM, first compound 0.000316 µM)?
Answer: 78.6%

Question: And the viability, T/C (second compound 0.1 µM, first compound 0.001 µM)?
Answer: 72.2%

Question: What about the viability, T/C (second compound 0.1 µM, first compound 0.00316 µM) of the same compound?
Answer: 69.1%

Question: And the viability, T/C (second compound 0.1 µM, first compound 0.01 µM)?
Answer: 59.6%

Question: What about the viability, T/C [13] of the same compound?
Answer: 53.9%

Question: And the viability, T/C [14]?
Answer: 47.5%

Question: And the viability, T/C (second compound 0.316 µM, first compound 0.000316 µM)?
Answer: 84.8%

Question: What about the viability, T/C (second compound 0.316 µM, first compound 0.001 µM) of the same compound?
Answer: 87.2%

Question: What about the viability, T/C (second compound 0.316 µM, first compound 0.00316 µM) of the same compound?
Answer: 55.5%

Question: And the viability, T/C (second compound 0.316 µM, first compound 0.01 µM)?
Answer: 55.8%

Question: What about the viability, T/C [19] of the same compound?
Answer: 37.2%

Question: And the viability, T/C [20]?
Answer: 50.2%

Question: What about the viability, T/C (second compound 1 µM, first compound 0.000316 µM) of the same compound?
Answer: 59%

Question: And the viability, T/C (second compound 1 µM, first compound 0.001 µM)?
Answer: 52.1%

Question: And the viability, T/C (second compound 1 µM, first compound 0.00316 µM)?
Answer: 54.5%

Question: And the viability, T/C (second compound 1 µM, first compound 0.01 µM)?
Answer: 43.3%

Question: And the viability, T/C [25]?
Answer: 70.2%

Question: And the viability, T/C [26]?
Answer: 30.8%

Question: What about the viability, T/C (second compound 3.16 µM, first compound 0.000316 µM) of the same compound?
Answer: 48.5%

Question: And the viability, T/C (second compound 3.16 µM, first compound 0.001 µM)?
Answer: 72.7%

Question: What about the viability, T/C (second compound 3.16 µM, first compound 0.00316 µM) of the same compound?
Answer: 60.7%

Question: And the viability, T/C (second compound 3.16 µM, first compound 0.01 µM)?
Answer: 62.6%

Question: And the viability, T/C [31]?
Answer: 33.1%

Question: What about the viability, T/C [32] of the same compound?
Answer: 36.8%

Question: And the viability, T/C (second compound 10 µM, first compound 0.000316 µM)?
Answer: 49.9%

Question: What about the viability, T/C (second compound 10 µM, first compound 0.001 µM) of the same compound?
Answer: 54.9%

Question: And the viability, T/C (second compound 10 µM, first compound 0.00316 µM)?
Answer: 60.7%

Question: And the viability, T/C (second compound 10 µM, first compound 0.01 µM)?
Answer: 40.6%

Question: What about the viability, T/C [37] of the same compound?
Answer: 50.8%

Question: And the viability, T/C [38]?
Answer: 38.2%

Question: What does the source list for `Cn1nccc1Nc1nccc(-c2ccn(C(CO)c3ccc(Cl)c(F)c3)c(=O)c2)n1` (stereo not given) + Cc1nc(NC(=O)N2CCCC2C(N)=O)sc1-c1ccnc(C(C)(C)C(F)(F)F)c1?
Answer: IC50 [1]: 7.87 µM; IC50 [2]: 4.8 µM; IC50 [3]: 6.44 µM; IC50 [4]: 4.65 µM; IC50 [5]: 4.88 µM; IC50 [6]: 4.81 µM; viability, T/C [7]: 83%; viability, T/C [8]: 66.9%; viability, T/C [9]: 92.2%; viability, T/C [10]: 90.7%; viability, T/C [11]: 81.6%; viability, T/C [12]: 41.6%; viability, T/C [13]: 79.8%; viability, T/C [14]: 77.3%; viability, T/C [15]: 76.3%; viability, T/C [16]: 75.3%; viability, T/C [17]: 63.2%; viability, T/C [18]: 26.6%; viability, T/C [19]: 87.8%; viability, T/C [20]: 99.5%; viability, T/C [21]: 72%; viability, T/C [22]: 74.6%; viability, T/C [23]: 81.6%; viability, T/C [24]: 30.6%; viability, T/C [25]: 68.6%; viability, T/C [26]: 69%; viability, T/C [27]: 62.1%; viability, T/C [28]: 107%; viability, T/C [29]: 60.9%; viability, T/C [30]: 28.5%; viability, T/C [31]: 54.2%; viability, T/C [32]: 102%; viability, T/C [33]: 86.1%; viability, T/C [34]: 87.3%; viability, T/C [35]: 67.3%; viability, T/C [36]: 21.6%; viability, T/C [37]: 109%; viability, T/C [38]: 103%; viability, T/C [39]: 101%; viability, T/C [40]: 94.2%; viability, T/C [41]: 69%; viability, T/C [42]: 16.4%
